# Data reported in article PMC7203735, “Characterization of an A-Type Muscarinic Acetylcholine Receptor and Its Possible Non-neuronal Role in the Oriental Armyworm, Mythimna separata Walker (Lepidoptera: Noctuidae)” (Frontiers in Physiology, 2020).
# Where two headings read alike, the source gives them in different places.
# Molecular target: T1, Ms A-type mAChR (Ms A-mAChR) (Mythimna separata, UniProt A0A2D1QUJ3)
# T1 sequence (A0A2D1QUJ3 1-601): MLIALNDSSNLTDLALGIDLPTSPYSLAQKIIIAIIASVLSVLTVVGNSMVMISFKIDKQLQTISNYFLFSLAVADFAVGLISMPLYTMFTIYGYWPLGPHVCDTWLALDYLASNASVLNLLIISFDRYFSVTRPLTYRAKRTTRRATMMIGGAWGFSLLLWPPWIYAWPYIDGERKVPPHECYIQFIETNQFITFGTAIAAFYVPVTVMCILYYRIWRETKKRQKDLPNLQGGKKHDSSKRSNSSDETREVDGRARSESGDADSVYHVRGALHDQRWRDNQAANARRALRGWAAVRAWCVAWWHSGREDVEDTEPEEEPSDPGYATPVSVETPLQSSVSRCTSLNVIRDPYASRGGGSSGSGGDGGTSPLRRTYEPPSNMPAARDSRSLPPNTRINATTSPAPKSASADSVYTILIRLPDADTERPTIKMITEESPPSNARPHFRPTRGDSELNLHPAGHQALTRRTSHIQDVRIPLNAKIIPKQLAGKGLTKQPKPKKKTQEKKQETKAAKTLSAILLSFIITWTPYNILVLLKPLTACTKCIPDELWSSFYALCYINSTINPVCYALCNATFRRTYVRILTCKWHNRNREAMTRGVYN
# Test: FLIPR calcium mobilization in transfected HEK […] cells
# Type: cell-based
EC50 (read-out: EC50) [nM],SMILES,EC50 [nM]
125,C[N+](C)(C)CCOC(N)=O [carbachol],–
–,C[C@@H]1O[C@H](C[N+](C)(C)C)C[C@H]1O [muscarine],388
